Tested on: VCAM-1
Assay: VCAM-1 assay: immunoassay of cell-surface VCAM-1 expression on TNF-stimulated human aortic endothelial cells (HAEC)
Format: cell-based
Conditions: TNF 250 U/mL, overnight (18 hours)
Description: CELL CULTURE: Human aortic endothelial cells (CellSystem) Media: 50:50 mix of CS 3.0 (CellSystem) and MCDB-107 (Sigma) 10% fetal bovine serum (FBS) (Hyclone) Tissue culture plates (24 well) (Costar) TNF: recombinant Tumor necrosis factor-alpha (Genzyme)
IMMUNOASSAYS: 10% buffered Formalin (Baxter) Dulbecco's modified eagle medium (DMEM), Phosphate buffered saline (PBS) (Gibco) Bovine serum albumin (BSA) (Sigma) Anti-ICAM-1 antibody (R&D System, BBA#3) Sheep anti-mouse IgG (Cappel, #55558) Horseradish peroxidase (HRP)-KIT (Bio-Rad, #172-1064) Anti-VCAM-1 antibody (R&D System, BBA#6) Goat anti-mouse IgG+IgM, F(ab)2 fragments, biotin conjugated (Jackson Immuno Research Lab, #115-066-068) 125-I-Streptavidin (Amersham, #IM.236)
Human aortic endothelial cells (HAEC) were seeded at 100,000 cells/mL/well in 24 well cluster plates and placed in a 5% CO2 to […] humidified incubator at 37° C. […]
The cells were incubated with anti-VCAM-1 monoclonal antibody (1.25 μg/mL) for 2 hours at 37° C. […] Cells were washed again (4 times) and digested overnight with the addition of 500 μL of 1N NaOH and radioactivity contained in the digests counted. Cell-surface VCAM-1 expression is shown as radioactivity bound to the cell surface under various conditions.

IC50: 23.1 µM
SMILES: Cc1c(C)c2c(c(C)c1O)CCC(C)(COc1ccc(NC(=S)NC(c3ccccc3)c3ccccc3)cc1)O2 (stereo not shown) [Example 1, 1-Benzhydryl-3-[4-(6-hydroxy-2,5,7,8-tetramethyl-Chroman-2-ylmethoxy)-phenyl]-thiourea]
